What was measured:
[1] = Effective concentration required for Calcium release via the intracellular InsP3 receptor of SH-SY5Y cells; type: functional, cell-based; conditions: Homo sapiens
[2] = Inhibitory concentration required to displace [3H]insP3 from Inositol 1,4,5-trisphosphate receptor of bovine adrenal cortex membranes; type: tissue-based

Row | SMILES | EC50 [1] [nM] | IC50 [2] [nM]
1 | O=P(O)(O)OC1C(O)C(O)C(OP(=O)(O)O)C(OP(=O)(O)O)C1F (stereo unspecified) | 5420 | 269
2 | O=P(O)(O)OC1C(O)C(OP(=O)(O)O)C(OP(=O)(O)O)C(F)C1OP(=O)(O)O (stereo unspecified) | 100 | 9.7
3 | O=P(O)(O)O[C@@H]1[C@H](O)[C@H](O)[C@@H](OP(=O)(O)O)[C@H](OP(=O)(O)O)[C@H]1O [INS(1,4,5)P3] | 51.6 | 5.5

Reference: ChEMBL document CHEMBL1128609, “Chemical synthesis and biological evaluation of 1d-1,2,4,5-InsP4 and its 3-fluorinated counterpart 1d-3-F-1,2,4,5-InsP4 potent 1d-1,4,5-InsP3-like calcium mobilizing analogues” (Bioorg Med Chem Lett, 1995)
